The target in assay [1] is human platelets (Homo sapiens, UniProt P05106+P08514). The assay is described as follows: 125I-Fibrinogen binding to platelets. Conditions: 0.1 μM 125I-fibrinogen, thrombin or activator peptide stimulus. On the procedure:
Preparation of Human Platelets
Human blood was collected by venipuncture in tubes containing one-tenth volume of acid-citrate-dextrose as an anticoagulant. Platelet-rich plasma was prepared by centrifugation of the blood for 10 min at 500 g at room temperature. The platelet-rich plasma was decanted and one-tenth volume of acid-citrate-dextrose was added followed by centrifugation at 1000 g at room temperature for 10 min to sediment the platelets. The platelets were suspended in two ml modified Tyrode's buffer (2 M NaCl, 0.5 M dextrose, 0.2 M NaHCO3, 0.1 M KCl, 0.1 M MgCl2, 0.1 M NaH2 PO4 and 0.1 M HEPES, pH 7.3) containing 0.35% bovine serum albumin and then filtered on a 50 ml column of Sepharose 2B (Pharmacia) equilibrated with Tyrode's buffer. Finally, the platelets were counted in an automated hematology analyzer.
Human low solubility fibrinogen (Kabi) was prepared as described previously (Lipinska et al., 1974). For ^125 I labeling, fibrinogen (1 mg) was incubated with three Iodo-Beads (Pierce Chemical Co.) and 1 mCi of Na^125 I for 15 min after with ^125 I-fibrinogen was separated from free radioactivity by filtration through a PD-10 column (Pharmacia). The specific activity was approximately 1-5×10^17 CPM/mol fibrinogen.
Binding of fibrinogen to human platelets was performed as described by Plow and Ginsberg (1981). Binding assays contained, in a volume of 0.2 ml, 1-2×10^7 platelets, 0.1 μM ^125 I-fibrinogen, 2 mM CaCl2 and 0.1 U/ml thrombin or various concentrations of activator peptides as a stimulus. Incubations were carried out in 1.2 ml Eppendorf microcentrifuge tubes at room temperature for 30 min and then duplicate 75 μl aliquots were layered onto 0.4 ml of 20% sucrose in Tyrode's buffer containing 1% bovine serum albumin and platelets were sedimented by centrifugation at 10,000 g for 5 min in a Beckman microcentrifuge. Tips of the centrifuge tubes were amputated and bound ^125 I-fibrinogen was measured in a gamma counter (LKB/Pharmacia). Nonspecifically bound radioactivity was determined in incubations in which activators were excluded and these values were 1-5% of those obtained with thrombin activation.

Assay [2] addresses Human platelet rich plasma (PRP) (Homo sapiens, UniProt P05106+P08514). Conditions: read-out: Platelet Aggregation ADP Induced IC50, ADP (1 μM). On the procedure: Platelet Aggregation In Vitro
Human platelet rich plasma (PRP) was prepared by centrifugation at 200×g for 10 min. at room temperature. Platelet poor plasma (PPP) was prepared by centrifugation at 2000×g for 10 min. PRP was exposed only to plastic laboratory ware. All experiments were completed within 3 hr of blood collection. Platelet aggregation was measured photometrically using a Chrono-log dual channel aggregometer (Chrono-log Corp., Haverstown, Pa. 19083). One hundred percent light transmission was defined with autologus PPP. Percent maximal change in light transmission was determined from PRP following addition of ADP (1 μM) or thrombin. […] MDL 102,530 was incubated with PRP (0.45 ml) for 30 sec prior to the addition of ADP or thrombin. Aggregation was measured in a total volume of 0.5 ml. Inhibitory responses were expressed s percent inhibition when compared to a control value. The concentration resulting in 50% inhibition of aggregation (IC50) was calculated by simple linear regression.

The target in assay [3] is T1, Purified GPIIbIIIa (Homo sapiens, UniProt P05106+P08514).
T1 construct: GPIIbIIIa was purified from human platelets; from tissue; host or cells: human platelets
T1 sequence (P08514 32-887 limits assumed): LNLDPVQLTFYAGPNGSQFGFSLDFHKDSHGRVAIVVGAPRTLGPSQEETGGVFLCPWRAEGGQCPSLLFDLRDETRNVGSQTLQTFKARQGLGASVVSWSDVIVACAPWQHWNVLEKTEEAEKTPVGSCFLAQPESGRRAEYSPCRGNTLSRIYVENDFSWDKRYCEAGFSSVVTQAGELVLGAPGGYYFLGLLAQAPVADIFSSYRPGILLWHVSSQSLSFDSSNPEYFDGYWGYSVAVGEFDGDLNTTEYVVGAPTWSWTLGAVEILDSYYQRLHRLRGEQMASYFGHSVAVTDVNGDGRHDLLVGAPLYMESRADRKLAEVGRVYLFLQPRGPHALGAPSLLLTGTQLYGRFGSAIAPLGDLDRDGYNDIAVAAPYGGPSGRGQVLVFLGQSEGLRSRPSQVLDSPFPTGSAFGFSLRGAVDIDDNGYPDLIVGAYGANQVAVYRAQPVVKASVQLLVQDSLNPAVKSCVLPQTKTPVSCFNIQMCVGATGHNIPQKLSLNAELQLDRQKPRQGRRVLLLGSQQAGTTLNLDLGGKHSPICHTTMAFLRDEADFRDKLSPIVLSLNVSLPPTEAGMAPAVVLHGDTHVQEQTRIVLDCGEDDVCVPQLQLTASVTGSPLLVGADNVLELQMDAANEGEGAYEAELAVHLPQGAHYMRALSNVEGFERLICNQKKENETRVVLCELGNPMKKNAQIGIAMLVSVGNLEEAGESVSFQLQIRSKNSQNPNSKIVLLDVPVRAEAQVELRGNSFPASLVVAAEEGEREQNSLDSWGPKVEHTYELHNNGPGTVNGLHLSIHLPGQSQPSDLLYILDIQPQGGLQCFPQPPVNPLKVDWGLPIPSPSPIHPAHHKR
T1 sequence (P08514 891-1039 partner limits assumed): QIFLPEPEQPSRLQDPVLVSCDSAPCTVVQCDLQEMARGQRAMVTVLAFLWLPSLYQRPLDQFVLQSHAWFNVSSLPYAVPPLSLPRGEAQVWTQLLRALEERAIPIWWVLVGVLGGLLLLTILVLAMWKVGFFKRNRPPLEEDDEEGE
T1 sequence (P05106 27-788): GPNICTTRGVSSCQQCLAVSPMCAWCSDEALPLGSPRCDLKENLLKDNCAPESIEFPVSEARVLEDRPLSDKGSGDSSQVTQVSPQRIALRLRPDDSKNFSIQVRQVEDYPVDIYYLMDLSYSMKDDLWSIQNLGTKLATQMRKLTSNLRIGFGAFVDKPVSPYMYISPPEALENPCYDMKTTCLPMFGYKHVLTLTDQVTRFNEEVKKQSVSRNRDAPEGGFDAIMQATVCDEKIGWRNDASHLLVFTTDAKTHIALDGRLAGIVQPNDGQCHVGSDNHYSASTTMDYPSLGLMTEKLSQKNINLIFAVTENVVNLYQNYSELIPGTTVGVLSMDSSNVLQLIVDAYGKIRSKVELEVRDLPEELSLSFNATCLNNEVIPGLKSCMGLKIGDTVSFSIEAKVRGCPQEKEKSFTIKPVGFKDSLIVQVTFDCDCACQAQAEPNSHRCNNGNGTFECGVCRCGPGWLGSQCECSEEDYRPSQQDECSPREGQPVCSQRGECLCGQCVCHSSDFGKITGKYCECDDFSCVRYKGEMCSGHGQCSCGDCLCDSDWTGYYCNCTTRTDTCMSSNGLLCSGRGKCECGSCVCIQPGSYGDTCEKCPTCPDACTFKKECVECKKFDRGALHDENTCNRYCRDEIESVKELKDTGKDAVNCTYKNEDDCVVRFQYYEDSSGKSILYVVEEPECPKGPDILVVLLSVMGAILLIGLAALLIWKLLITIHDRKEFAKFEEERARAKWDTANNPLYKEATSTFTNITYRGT
The assay can be described thus: GPIIbIIIa (fibrinogen) enzyme-linked immunoassay (ELISA). The conditions noted are these: purified human platelet GPIIbIIIa binding to immobilized fibrinogen; read-out: GPIIbIIIa (Fibrogen ELISA IC50). On the procedure: GPIIbIIIa Enzyme-Linked Immunoassay
Low solubility fibrinogen, prepared as described by Lipinska et al., J. Lab. Clin. Med., 84, 509-516 (1974) (human, KABI) was immobolized at 5 μg/well on Immunolon 2-96 well plates (inculated overnight at 4° to bind to the wells). The wells were blocked with 0.5% bovine serum albumin in buffer A ([…] Tris-HCl, pH 7.5, 2 mM CaCl2, 120 mM […], and 0.02% NaN3) for two hours at room temperature. All subsequent steps were carried out at room temperature. The wells were washed three times with buffer A plus 0.5% Tween 20 (BioRad). Purified GPIIbIIIa (2 μg/well) plus synthetic peptides supplements at the indicated concentrations were conincubated for 90 to 120 min with immobilized fibrinogen. The wells were washed as above, then the anti-GPIIbIIIa monoclonal antibody, CD41a, was added to each well and incubated for 60 min. After another three washes, goat anti-mouse horseradish peroxidase conjugate was added to each well (60 min). The wells were washed three times with buffer A plus detergent, followed by two washes with buffer A minus detergent. The peroxidase substrate, 3,3',5,5'-tetramethylbenzidine (Kirkegaard and Perry Laboratories, Inc.) was added to the wells for color development. The reaction was stopped with 0.3N H2 SO4, and absorbances were measured at 450 mn using a microplate reader (Multiscan II, Flow-Titertek).
GPIIbIIIa was purified from human platelets as described by Fitzgerald, et al., Anal. Biochem., 151, 169-177 (1985), except that the final gel purification step was performed with an HW55 size exclusion column (Waters, Advanced Protein Purification System), instead of Sephacryl S-300. The protein, greater than 90% pure as assessed by SDS polyacrylamide gel electrophoresis, was stored at -80° C. in small aliquots.
(In general: An ELISA detects its analyte on a solid surface through an enzyme-linked reagent.)

pIC50: −log10 of the molar value.

We go through four compounds from patent US6107275A, “Cyclic Antiplatelet peptides with pseudo-bond” (Merrell Pharmaceuticals Inc., priority 1997, dated 2000).

Sequence of human platelets (P08514 32-1039): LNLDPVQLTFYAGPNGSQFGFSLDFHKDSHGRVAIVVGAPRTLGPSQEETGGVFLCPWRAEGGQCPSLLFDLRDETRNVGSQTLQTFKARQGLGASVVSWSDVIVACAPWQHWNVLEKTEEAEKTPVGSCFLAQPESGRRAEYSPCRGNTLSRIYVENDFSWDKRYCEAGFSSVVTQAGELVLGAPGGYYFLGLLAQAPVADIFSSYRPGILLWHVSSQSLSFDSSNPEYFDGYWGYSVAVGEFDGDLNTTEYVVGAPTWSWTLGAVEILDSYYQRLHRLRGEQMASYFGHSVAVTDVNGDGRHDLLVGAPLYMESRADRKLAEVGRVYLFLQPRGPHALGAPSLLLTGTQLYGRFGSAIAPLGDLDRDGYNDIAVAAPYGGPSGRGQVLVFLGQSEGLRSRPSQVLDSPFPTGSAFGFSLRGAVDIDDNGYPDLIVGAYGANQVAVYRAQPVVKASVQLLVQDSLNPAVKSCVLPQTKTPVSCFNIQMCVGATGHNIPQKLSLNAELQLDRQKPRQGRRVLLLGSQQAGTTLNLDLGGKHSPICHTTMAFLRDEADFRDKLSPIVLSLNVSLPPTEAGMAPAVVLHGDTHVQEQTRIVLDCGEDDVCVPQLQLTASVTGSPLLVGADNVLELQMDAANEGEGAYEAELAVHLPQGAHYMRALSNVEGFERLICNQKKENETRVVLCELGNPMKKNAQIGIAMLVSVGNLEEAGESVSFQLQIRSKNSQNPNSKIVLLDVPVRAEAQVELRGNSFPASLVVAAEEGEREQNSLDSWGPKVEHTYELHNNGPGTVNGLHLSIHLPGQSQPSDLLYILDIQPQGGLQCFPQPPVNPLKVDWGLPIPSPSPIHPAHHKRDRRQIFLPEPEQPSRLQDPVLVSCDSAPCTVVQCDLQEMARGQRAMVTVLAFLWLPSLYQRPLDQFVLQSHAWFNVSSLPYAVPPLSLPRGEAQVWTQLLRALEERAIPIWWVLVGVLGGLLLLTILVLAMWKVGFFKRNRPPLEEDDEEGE
Sequence of human platelets (P05106 27-788): as the sequence (P05106 27-788) above
Sequence of Human platelet rich plasma (PRP) (P08514 32-1039): as the sequence (P08514 32-1039) above
Sequence of Human platelet rich plasma (PRP) (P05106 27-788): as the sequence (P05106 27-788) above

As usually defined, the pIC50 is the IC50 on a negative log10 scale, so that one unit is a factor of ten. Take `C[C@H]1CN(CCCc2ccccc2)[C@@H](CCCNC(=N)N)C(=O)NCC(=O)N[C@@H](CC(=O)O)C(=O)N[C@H](C(=O)NCc2ccccc2)CCC(=O)N1` [IV]: the pIC50 in assay [1] was 6.57; in assay [2], 5.19; in assay [3], 6.52.
As to `C[C@H]1CN(C(=O)CCN)[C@@H](CCCNC(=N)N)C(=O)NCC(=O)N[C@@H](CC(=O)O)C(=O)N[C@H](C(=O)NCc2ccccc2)CCC(=O)N1` [III], the values for the pIC50 in assay [1], in assay [2] and in assay [3] were 5.62, 4.31 and 5.52, respectively.
For `C[C@H]1CN[C@@H](CCCNC(=N)N)C(=O)NCC(=O)N[C@@H](CC(=O)O)C(=O)N[C@H](C(=O)NCc2ccccc2)CCC(=O)N1` [I], the pIC50 in assay [1] is 5.62; in assay [3], 6.70.
On to `C[C@H]1CN(CCCC(=O)O)[C@@H](CCCNC(=N)N)C(=O)NCC(=O)N[C@@H](CC(=O)O)C(=O)N[C@H](C(=O)NCc2ccccc2)CCC(=O)N1` [II], for which the figures for the pIC50 in assay [1] and in assay [3] were 5.92 and 6.27, respectively.
